Results published in patent US8563616B2, “Desensitizing drug product” (priority 2009, dated 2013).
Where two headings read alike, the source gives them in different places.

Legend:
[1] = pKa and ionization of lidocaine; type: physicochemical; conditions: pH 8.9
[2] = mixture containing 25% ethyl alcohol, 5% lidocaine, pH 9.2 phosphate buffer; cited from earlier work
[3] = Melt System III, cited from earlier work; for Percentage in aq: amount in aqueous phase/total amount in whole system × 100; for Percentage in oil: amount in oil phase/total amount in whole system × 100; for Conc in aq: g per 100 g of aqueous phase; for Conc in oil: g per 100 g of oil phase
[4] = in the mixtures that formed a homogenous oil; cited from earlier work

For `CCN(CC)CC(=O)Nc1c(C)cccc1C` [Lidocaine, lidocaine], the ionized [1] is given as 10%, the “concentration of lidocaine in the oil” value [2] is given as 73 % (w:w) and the Percentage in aq [3] is given as 20.80%. For the same compound, the Percentage in oil [3] was “approximately 80%”, the Percentage in oil ([3]; listed as L) was 79.20% and the Conc in aq [3] was 1.09%. The Conc in oil [3] was 87.00%.
For `Cc1ccc(C(C)C)c(O)c1` [Thymol, thymol], the chemical stability [4] is listed as “chemically stable”, the Percentage in aq [3] is listed as 14.88% and the Percentage in oil [3] is listed as “approximately 85%”. The Percentage in oil ([3]; listed as T) was 85.13%, the Conc in aq [3] was 0.09% and the Conc in oil [3] was 10.60%.
